Assays:
[1] = target: T1, Aβ42 fibrillar aggregates (Homo sapiens, UniProt P05067); experiment: ThT binding assay, dissolution of preformed Aβ42 fibrils; assay type: biochemical; details: after sixth day of incubation
T1 construct: commercially available β-amyloid peptide (1-42), human; purchased marck (so in the source) PP69-.025 mg
Description: Monomeric form of Aβ42 peptide was prepared by dissolving 0.25 mg of commercially available β-amyloid peptide (1-42), human (cat: PP69-.025 mg), marck peptide in 250 µL of hexafluoro-2-propanol (HFIP) solvent to obtain a Aβ42 solution. This solution was incubated at room temperature for 1 hour, further to which the HFIP solvent was removed by nitrogen gas flow to obtain the monomeric Aβ42 peptide. To prepare a fibrillar sample of Aβ42 peptide, 0.025 mg of Aβ42 peptide was dissolved in […] of PBS buffer (pH = 7.4; contains 2% of DMSO or 100 mM NaOH) to obtain a monomeric Aβ42 solution and the peptide concentration in this solution was calculated through UV-Visible absorbance studies (ε = 1450 cm^-1 M^-1). The Aβ42 monomeric solution was incubated for 5 days in PBS buffer (pH = 7.4) to allow for the full phase formation of Aβ42 fibrils. The presence of Aβ42 fibrils was further confirmed by ThT assay.
The ability of NMI compounds (TGR63, TGR64 and TGR65) to prevent Aβ42 fibrillar assembly (inhibition) and to break down the preformed fibrils (dissolution) was evaluated using thioflavin (ThT) binding assay. Aβ42 fibrils at a concentration of 10 µM and its aggregates, were used to study the effect of NMI compounds (TGR63, TGR64 and TGR65) at varying concentrations on both inhibition and dissolution assays. For the inhibition assay, all the NMI compounds (TGR63, TGR64 and TGR65) were added independently to Aβ peptide (10 µM) at 0 h of the experiment, whereas for the aggregates dissolution assay they were added to Aβ42 fibrillar aggregates grown for 2 days. Upon incubating for a predetermined period, Aβ42 inhibitor samples were analyzed using ThT by measuring the fluorescence change at 485 nm as presented in FIG. 1(b) and FIG. 1(c), wherein the error bars represent the standard deviation (SD) of the fluorescence measurement. Fluorescence values were normalized to maximal fluorescence intensity at 485 nm compared to that of the control (Aβ42 with no inhibitor). Experiments were performed at various stoichiometric ratios (Aβ42/inhibitor) of 1:1, 1:2, and 1:5 with a fixed concentration of Aβ42 at 10 µM. Each experiment was repeated three times (n = 3). […] TGR 63 recorded 80% dissolution efficiency while TGR 64 and TGR 65 recorded 75% and 78% dissolution efficiency respectively, for the stoichiometric ratio of 1:5.

[2] = system: APP/PS1 mice; experiment: Amyloid burden in brain by OC immunohistochemistry; assay type: in vivo
Description: To evaluate the activity of TGR63 to ameliorate amyloid burden in in vivo AD model, APP/PS1 mice were bred, maintained and characterized (WT: wild type; AD: APP/PS1 positive) according to the Jackson Laboratory protocols. The double transgenic APP/PS1 mice (B6C3-Tg (APPswe, PSEN IdE9)85Dbo/J; stock number 004462), which express human transgenes APP and presenilin 1 (PS1) in the central nervous system (CNS) contains the Swedish and […], respectively. The K595N/M596L (Swedish) mutation favors the amyloidogenic processing of APP protein, and PS1 mutation ([…]) elevates the production of Aβ peptides through modifying the intra-membrane γ-complex. The presence of Aβ plaques in the APP/PS 1 AD phenotypic mouse brain was confirmed and compared with the healthy brain by Aβ plaques-specific staining protocols. FIG. 13 depicts the Staining of amyloid plaques with OC primary antibody and ThT or CQ probe, FIG. 13A represent the high-resolution confocal microscopy images of cortex and hippocampus regions of the AD mouse brain, immunostained with OC antibody (red), DAPI (blue) and ThT (green). The merged images display significant overlap between ThT and OC staining to confirm the amyloid deposition (pointed with white arrows), FIG. 13A represent the visualization of amyloid deposits associated neuronal damage: The DIC images of different regions of AD. The merged images of DIC and confocal microscopy images show amyloid plaques associated brain damage (pointed out with red arrows). The brains were harvested from the age matched WT and AD mice and treated with PFA (4%) and sucrose solution (30%) for the sagittal brain sectioning (40 µm sections). The brain sections were co-stained with ThT (λex= 442 nm, λem= 482 nm) and OC primary antibody followed by fluorescently labeled secondary antibody (λex= 633 nm, λem= 650 nm) or CQ to visualize and confirm the amyloid plaques deposition. […] Similar fluorescence signals (green and red) were absent in the age-matched WT brain section, confirming the amyloid plaques-free healthy brain (FIG. 13A). The hippocampal damage, a hallmark of advanced AD condition was partially observed in 14 month old APP/PS1 mice. Age-matched AD, and WT cohorts were administered with TGR63 (5 mg/kg body weight/day) and vehicle starting from the age of 6 months following the treatment protocols as shown in FIG. 14. The experimental mice were sacrificed after completing the behavioral studies (14 months) to investigate amyloid deposits in the brain using immunohistochemistry. The sagittal brain sections were permeabilized and blocked with PBTx (0.1 M PBS and 0.1% TritonX-100) and goat serum (1%) containing BSA (2%) at room temperature, respectively. […]

T1 sequence (P05067 672-713 limits assumed): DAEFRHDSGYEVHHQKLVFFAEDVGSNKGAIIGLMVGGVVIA

With CN(C)c1ccc(C#Cc2ccc3c4c(cccc24)C(=O)N(CC[N+](C)(C)C)C3=O)cc1 [TGR63, 2-(6-((4-(dimethylamino)phenyl)ethynyl)-1,3-dioxo-1H-benzo[de]isoquinolin-2(3H)-yl)-N,N,N-trimethylethan-1-aminium] the dissolution efficiency ([1]; Aβ42/inhibitor 1:1, Aβ42 10 µM) was ~ 35%, the dissolution efficiency ([1]; Aβ42/inhibitor 1:2, Aβ42 10 µM) was ~ 50% and the dissolution efficiency ([1]; Aβ42/inhibitor 1:5, Aβ42 10 µM) was 80%. For the same compound, the “Aβ plaques deposits, area of the hippocampus” value ([2]; AD (APP/PS1) mice, 5 mg/kg body weight/day from 6 to 14 months, vehicle 6.28%) was 0.94 % area, the “Aβ plaques deposits, area of the cortex” value ([2]; AD (APP/PS1) mice, 5 mg/kg body weight/day from 6 to 14 months, vehicle 8.87%) was 1.94 % area and the “reduction of Aβ deposits in the cortex” value ([2]; AD mice, versus vehicle) was 78%. The “reduction of Aβ deposits in the hippocampus” value ([2]; AD mice, versus vehicle) was 85%.
